Measurements from ChEMBL document CHEMBL3526110, “Preclinical evaluation of the metabolism and disposition of RRx-001, a novel investigative anticancer agent” (Drug Metab Dispos, 2012).

Tests used:
Assay type in all cases: ADME, tissue-based
Blood [1] = test: Drug metabolism in human whole blood treated with 20 uM RRx-001 assessed as compound formation by LC-MS/MS method
Blood [2] = test: Drug metabolism in rat whole blood treated with 20 uM RRx-001 assessed as compound formation by LC-MS/MS method
Blood [3] = test: Retention time in human whole blood in presence of 0.1% formic acid in water at 20 uM by LC-MS/MS method
Blood [4] = test: Retention time in human whole blood in presence of 0.1% formic acid in acetonitrile at 20 uM by LC-MS/MS method
Blood [5] = test: Retention time in rat whole blood in presence of 0.1% formic acid in acetonitrile at 20 uM by LC-MS/MS method
Blood [6] = test: Retention time in rat whole blood in presence of 0.1% formic acid in water at 20 uM by LC-MS/MS method

SMILES	Drug metabolism (Blood [1])	Drug metabolism (Blood [2])	Retention_time (Blood [3]) [min]	Retention_time (Blood [4]) [min]	Retention_time (Blood [5]) [min]	Retention_time (Blood [6]) [min]
N[C@@H](CSCC(=O)N1CC([N+](=O)[O-])C1)C(=O)O	metabolite_detected	metabolite_detected	4.7	4.3	4.3	4.7
N[C@@H](CSCC(=O)N1CC([N+](=O)[O-])([N+](=O)[O-])C1)C(=O)NCC(=O)O	metabolite_detected	metabolite_detected	8	6.2	6.2	8
